{"source": "paper PMC9782601", "about": "“A Fucosylated Lactose-Presenting Tetravalent Glycocluster Acting as a Mutual Ligand of Pseudomonas aeruginosa Lectins A (PA-IL) and B (PA-IIL)—Synthesis and Interaction Studies” (International Journal of Molecular Sciences, 2022)", "assay_type_in_all_cases": "binding", "key": {"PA-IIL (LecB)": {"target": "T1, PA-IIL (LecB) (Pseudomonas aeruginosa, UniProt Q9HYN5)", "T1 construct": "freeze-dried; tetramer, one sugar site with two calcium ions per monomer", "T1 sequence (Q9HYN5 entry or part of it)": "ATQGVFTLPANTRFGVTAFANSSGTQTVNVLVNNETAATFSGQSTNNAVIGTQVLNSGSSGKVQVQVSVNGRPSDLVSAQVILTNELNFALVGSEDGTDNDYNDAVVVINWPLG", "experiment": "isothermal titration calorimetry, single-site model", "conditions": "0.1 M Tris/HCl, 500 μM CaCl2, pH 7.5, 25 °C", "excerpt": "isothermal titration calorimetry, single-site model on PA-IIL (LecB)"}, "PA-IL (LecA) [1]": {"target": "T2, PA-IL (LecA) (Pseudomonas aeruginosa, UniProt Q05097)", "T2 construct": "freeze-dried; tetramer, one sugar site with one calcium ion per monomer", "T2 sequence (Q05097 2-122)": "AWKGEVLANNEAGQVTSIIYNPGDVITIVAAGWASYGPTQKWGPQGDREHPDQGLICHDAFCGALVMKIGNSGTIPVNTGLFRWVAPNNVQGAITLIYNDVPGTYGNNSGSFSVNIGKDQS", "experiment": "isothermal titration calorimetry, single-site model", "conditions": "0.1 M Tris/HCl, 500 μM CaCl2, pH 7.5, 25 °C", "excerpt": "isothermal titration calorimetry, single-site model on PA-IL (LecA)"}, "PA-IL (LecA) [2]": {"target": "T2, PA-IL (LecA)", "experiment": "1H STD NMR, reference ligand", "conditions": "4 mM ligand, 40 μM lectin, D2O, 20 mM Tris-d11, 150 mM NaCl, 5 mM CaCl2, pH 7.5, 283 K"}}}
{"molecule": "C[C@@H]1O[C@@H](O[C@@H]2[C@@H](O)[C@H](OCc3cn(CCn4cc(COCC(COCc5cn(CCn6cc(CO[C@@H]7O[C@H](CO)[C@@H](O[C@@H]8O[C@H](CO)[C@H](O)[C@H](O)[C@H]8O)[C@H](O[C@@H]8O[C@@H](C)[C@@H](O)[C@@H](O)[C@@H]8O)[C@H]7O)nn6)nn5)(COCc5cn(CCn6cc(CO[C@@H]7O[C@H](CO)[C@@H](O[C@@H]8O[C@H](CO)[C@H](O)[C@H](O)[C@H]8O)[C@H](O[C@@H]8O[C@@H](C)[C@@H](O)[C@@H](O)[C@@H]8O)[C@H]7O)nn6)nn5)COCc5cn(CCn6cc(CO[C@@H]7O[C@H](CO)[C@@H](O[C@@H]8O[C@H](CO)[C@H](O)[C@H](O)[C@H]8O)[C@H](O[C@@H]8O[C@@H](C)[C@@H](O)[C@@H](O)[C@@H]8O)[C@H]7O)nn6)nn5)nn4)nn3)O[C@H](CO)[C@H]2O[C@@H]2O[C@H](CO)[C@H](O)[C@H](O)[C@H]2O)[C@@H](O)[C@H](O)[C@@H]1O", "note": "[compound 8, Compound 8]", "values": [{"measurement": "Ka [10^4 M^-1]", "setting": "PA-IIL (LecB); n = 1.12 pH, buffer, temperature, tetravalent ligand, n = 1.1", "result": "257 ± 66.9 10^4 M^-1"}, {"measurement": "Ka [10^4 M^-1]", "setting": "PA-IL (LecA) [1]; n = 0.51 pH, buffer, temperature, tetravalent ligand, n = 0.89", "result": "496 ± 104 10^4 M^-1"}]}
{"molecule": "CO[C@H]1O[C@H](CO)[C@H](O)[C@H](O)[C@H]1O", "note": "[Meα-D-Gal]", "values": [{"measurement": "STD signal", "setting": "PA-IL (LecA) [2]", "result": "The STD signals (highlighted by red ellipsoids) confirm the binding of Meα-D-Gal"}]}
{"molecule": "C#CCO[C@@H]1O[C@H](CO)[C@@H](O[C@@H]2O[C@H](CO)[C@H](O)[C@H](O)[C@H]2O)[C@H](O[C@@H]2O[C@@H](C)[C@@H](O)[C@@H](O)[C@@H]2O)[C@H]1O", "note": "[compound 6, Compound 6]", "values": [{"measurement": "Ka [10^4 M^-1]", "setting": "PA-IIL (LecB); n = 1.12", "result": "344 ± 124 10^4 M^-1"}, {"measurement": "Ka [10^4 M^-1]", "setting": "PA-IL (LecA) [1]; n = 0.51", "result": "59 ± 28.4 10^4 M^-1"}]}
